The text below walks through data of article PMC8950663, “Cyanobacteria Secondary Metabolites as Biotechnological Ingredients in Natural Anti-Aging Cosmetics: Potential to Overcome Hyperpigmentation, Loss of Skin Density and UV Radiation-Deleterious Effects” (Marine Drugs, 2022).

Molecules are shown by their SMILES.

The IC50 is the concentration needed to halve the response being measured. High values mean lower potency, low ones higher potency.

In the experiment the target is T1, hyaluronidase (HAase).
T1 construct: gene SPAM1
In words: colorimetric DMAB end-point assay of hyaluronic acid degradation, […] nm. Particulars: hyaluronic acid substrate (0.7 mg/mL stock), 37 °C, 30 min; positive control. It counts as biochemical.

`O=C(O)c1cc(=O)c2c(OCC(O)COc3cccc4oc(C(=O)O)cc(=O)c34)cccc2o1` [di-sodium cromoglicate] had an IC50 of 1105 µg/mL.
